Measurements from US11708367B2, “Compounds for the treatment of kinase-dependent disorders” (Exelixis, Inc., priority 2018, dated 2023).

Assays:
Format in all cases: cell-based
AXL = AXL (Homo sapiens (Human), UniProt P30530); assay: AXL autophosphorylation ELISA in A-172 cells; details: cellular, Gas6-stimulated, phospho-AXL ELISA
Outline: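 A-172 glioblastoma cells, serum-starved 24 h, got 8-point compound dilutions (0.3% DMSO) for 1 h, then 1 μg/mL human Gas6 for 15 min. Phospho-AXL in lysates was quantified by ELISA against a standard, normalized between DMSO and reference-inhibitor controls; IC50 by 4-parameter logistic fit.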

Mer = Mer (Homo sapiens (Human), UniProt Q12866); assay: Mer autophosphorylation ELISA in transient transfected 293A cells; details: cellular, MERTK-transfected 293A cells, phospho-Mer ELISA
Mer, sequence (Q12866 21-999): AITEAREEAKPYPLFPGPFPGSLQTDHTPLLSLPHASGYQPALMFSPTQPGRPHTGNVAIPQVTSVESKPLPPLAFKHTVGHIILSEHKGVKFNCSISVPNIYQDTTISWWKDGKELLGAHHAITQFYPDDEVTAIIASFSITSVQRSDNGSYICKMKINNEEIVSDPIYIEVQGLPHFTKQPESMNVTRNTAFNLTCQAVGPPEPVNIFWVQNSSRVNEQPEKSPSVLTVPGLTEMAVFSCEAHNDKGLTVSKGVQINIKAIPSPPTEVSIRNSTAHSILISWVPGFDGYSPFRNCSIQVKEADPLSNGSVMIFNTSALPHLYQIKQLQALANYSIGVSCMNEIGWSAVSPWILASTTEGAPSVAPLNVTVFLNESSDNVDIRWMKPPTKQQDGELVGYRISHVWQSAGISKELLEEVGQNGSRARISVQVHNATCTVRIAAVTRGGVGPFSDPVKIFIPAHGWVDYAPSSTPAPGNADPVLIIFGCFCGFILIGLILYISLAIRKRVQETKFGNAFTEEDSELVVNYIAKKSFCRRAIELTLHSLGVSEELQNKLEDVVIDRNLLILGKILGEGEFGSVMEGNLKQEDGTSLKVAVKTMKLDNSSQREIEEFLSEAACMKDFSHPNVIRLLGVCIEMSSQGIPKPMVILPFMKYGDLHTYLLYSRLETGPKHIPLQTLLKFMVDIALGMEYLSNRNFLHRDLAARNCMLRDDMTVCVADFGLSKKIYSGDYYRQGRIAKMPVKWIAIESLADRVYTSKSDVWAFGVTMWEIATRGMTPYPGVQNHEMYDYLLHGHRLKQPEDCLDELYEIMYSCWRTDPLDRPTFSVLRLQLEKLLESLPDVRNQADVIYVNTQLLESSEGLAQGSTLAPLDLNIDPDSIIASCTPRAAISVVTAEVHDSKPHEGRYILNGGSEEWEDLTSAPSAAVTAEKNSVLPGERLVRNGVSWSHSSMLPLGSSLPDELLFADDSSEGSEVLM
Description: 293A cells (Thermo Fisher #R70507) were seeded at 1.5×10^6 cells/well onto 100 mm dish (Greiner #664169), in DMEM (Thermo Fisher #11995-040) containing 10% FBS (Thermo Fisher #26140-079), 1% MEM NEAA (Thermo Fisher #11140-050), 1% GlutaMax (Thermo Fisher #35050-061), and 1% Penicillin Streptomycin (Thermo Fisher #15140-122). 293A cells were incubated at 37° C., 5% CO2 for 24 h and then transfected with 6 μg MERTK DNA (Genecopoeia #EX-Z8208-M02) using TransIT LT1 transfection reagent (Mirus-Bio #MIR2305). After 24 h incubation, the transfected 293A cells were seeded at 1×10^5 cells/well onto 96-well plates (Corning #3904) in DMEM growth medium overnight. Test compounds were serially diluted to produce an 8-point dose curve in fresh serum-free medium to a final concentration of 0.3% DMSO (vehicle) and added to the cells and incubated for 1 h. Cells were then immediately lysed with 150 μL of cold IX lysis buffer [20 mM Tris, 137 mM sodium chloride, 2 mM EDTA, 10% glycerol, 1% NP-40 alternative, 1 mM activated sodium orthovanadate, 1 mM PefaBloc SC (Sigma-Aldrich #11429868001), protease/phosphatase inhibitor tablet (Thermo Fisher #A32959)]. Lysates were clarified by centrifugation and 50 μL/well added into the human phospho-Mer DuoSet IC ELISA (R&D Systems #DYC2579-2). Assay was performed according to manufacturer's instructions and sample phospho-Mer concentrations were extrapolated using human phospho-Mer control (R&D Systems #841793) as a standard. Positive control wells (100% activity) contained DMSO-treated cell lysates. Negative control wells (0% activity) contained reference inhibitor-treated cell lysates. IC50 values were calculated by nonlinear regression analysis using a 4-parameter logistic curve fit in ActivityBase XE (IDBS).

Met = Met (Homo sapiens (Human), UniProt P08581); assay: Met autophosphorylation ELISA in PC-3 cells; details: cellular, HGF-stimulated, phospho-Met ELISA, read-out: c-Met IC50
Met, sequence (P08581 25-1390): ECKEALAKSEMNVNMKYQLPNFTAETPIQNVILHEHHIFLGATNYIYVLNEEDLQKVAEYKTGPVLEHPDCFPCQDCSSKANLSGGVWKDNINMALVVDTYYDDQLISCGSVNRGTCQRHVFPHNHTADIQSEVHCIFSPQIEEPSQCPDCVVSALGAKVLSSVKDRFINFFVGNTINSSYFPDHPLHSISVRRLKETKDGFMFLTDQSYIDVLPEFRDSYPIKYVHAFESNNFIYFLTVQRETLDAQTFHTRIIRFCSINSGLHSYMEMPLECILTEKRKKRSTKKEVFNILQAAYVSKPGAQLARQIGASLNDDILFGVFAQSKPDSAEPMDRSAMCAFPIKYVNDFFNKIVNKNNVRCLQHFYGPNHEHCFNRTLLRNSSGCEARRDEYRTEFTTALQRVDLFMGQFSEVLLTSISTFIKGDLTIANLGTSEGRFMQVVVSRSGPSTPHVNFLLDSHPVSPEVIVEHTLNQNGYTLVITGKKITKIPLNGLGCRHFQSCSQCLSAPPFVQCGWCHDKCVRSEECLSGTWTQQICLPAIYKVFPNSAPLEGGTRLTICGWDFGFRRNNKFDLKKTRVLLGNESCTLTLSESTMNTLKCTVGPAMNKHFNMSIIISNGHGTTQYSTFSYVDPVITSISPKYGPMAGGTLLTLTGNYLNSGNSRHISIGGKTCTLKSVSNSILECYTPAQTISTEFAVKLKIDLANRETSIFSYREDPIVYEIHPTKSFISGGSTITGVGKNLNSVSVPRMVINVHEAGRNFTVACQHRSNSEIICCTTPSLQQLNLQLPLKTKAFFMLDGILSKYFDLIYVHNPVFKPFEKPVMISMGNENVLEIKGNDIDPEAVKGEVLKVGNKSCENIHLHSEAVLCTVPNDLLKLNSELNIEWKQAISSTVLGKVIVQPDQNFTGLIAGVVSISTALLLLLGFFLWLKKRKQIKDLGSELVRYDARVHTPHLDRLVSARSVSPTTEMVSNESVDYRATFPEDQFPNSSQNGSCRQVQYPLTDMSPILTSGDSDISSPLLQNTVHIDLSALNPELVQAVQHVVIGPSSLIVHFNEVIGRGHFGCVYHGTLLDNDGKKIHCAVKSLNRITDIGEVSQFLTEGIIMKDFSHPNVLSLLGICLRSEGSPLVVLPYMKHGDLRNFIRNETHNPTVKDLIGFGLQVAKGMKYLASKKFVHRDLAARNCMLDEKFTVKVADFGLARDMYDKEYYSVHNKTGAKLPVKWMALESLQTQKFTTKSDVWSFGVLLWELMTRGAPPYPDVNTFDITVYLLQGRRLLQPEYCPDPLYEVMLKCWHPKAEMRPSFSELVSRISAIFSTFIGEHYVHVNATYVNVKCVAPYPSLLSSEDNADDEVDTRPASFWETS
Outline: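 Serum-starved PC-3 cells treated 1 h with compound (8-point series, 0.3% DMSO), then stimulated 10 min with 100 ng/mL HGF. Phospho-Met (panTyr) quantified in lysates by sandwich ELISA; IC50 from 4-parameter logistic fit against DMSO and reference-inhibitor controls.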

KDR = KDR (Homo sapiens (Human), UniProt P35968); assay: KDR autophosphorylation ELISA in HUVEC cells; details: cellular, VEGF165-stimulated, phospho-KDR ELISA
KDR, sequence (P35968 20-1356): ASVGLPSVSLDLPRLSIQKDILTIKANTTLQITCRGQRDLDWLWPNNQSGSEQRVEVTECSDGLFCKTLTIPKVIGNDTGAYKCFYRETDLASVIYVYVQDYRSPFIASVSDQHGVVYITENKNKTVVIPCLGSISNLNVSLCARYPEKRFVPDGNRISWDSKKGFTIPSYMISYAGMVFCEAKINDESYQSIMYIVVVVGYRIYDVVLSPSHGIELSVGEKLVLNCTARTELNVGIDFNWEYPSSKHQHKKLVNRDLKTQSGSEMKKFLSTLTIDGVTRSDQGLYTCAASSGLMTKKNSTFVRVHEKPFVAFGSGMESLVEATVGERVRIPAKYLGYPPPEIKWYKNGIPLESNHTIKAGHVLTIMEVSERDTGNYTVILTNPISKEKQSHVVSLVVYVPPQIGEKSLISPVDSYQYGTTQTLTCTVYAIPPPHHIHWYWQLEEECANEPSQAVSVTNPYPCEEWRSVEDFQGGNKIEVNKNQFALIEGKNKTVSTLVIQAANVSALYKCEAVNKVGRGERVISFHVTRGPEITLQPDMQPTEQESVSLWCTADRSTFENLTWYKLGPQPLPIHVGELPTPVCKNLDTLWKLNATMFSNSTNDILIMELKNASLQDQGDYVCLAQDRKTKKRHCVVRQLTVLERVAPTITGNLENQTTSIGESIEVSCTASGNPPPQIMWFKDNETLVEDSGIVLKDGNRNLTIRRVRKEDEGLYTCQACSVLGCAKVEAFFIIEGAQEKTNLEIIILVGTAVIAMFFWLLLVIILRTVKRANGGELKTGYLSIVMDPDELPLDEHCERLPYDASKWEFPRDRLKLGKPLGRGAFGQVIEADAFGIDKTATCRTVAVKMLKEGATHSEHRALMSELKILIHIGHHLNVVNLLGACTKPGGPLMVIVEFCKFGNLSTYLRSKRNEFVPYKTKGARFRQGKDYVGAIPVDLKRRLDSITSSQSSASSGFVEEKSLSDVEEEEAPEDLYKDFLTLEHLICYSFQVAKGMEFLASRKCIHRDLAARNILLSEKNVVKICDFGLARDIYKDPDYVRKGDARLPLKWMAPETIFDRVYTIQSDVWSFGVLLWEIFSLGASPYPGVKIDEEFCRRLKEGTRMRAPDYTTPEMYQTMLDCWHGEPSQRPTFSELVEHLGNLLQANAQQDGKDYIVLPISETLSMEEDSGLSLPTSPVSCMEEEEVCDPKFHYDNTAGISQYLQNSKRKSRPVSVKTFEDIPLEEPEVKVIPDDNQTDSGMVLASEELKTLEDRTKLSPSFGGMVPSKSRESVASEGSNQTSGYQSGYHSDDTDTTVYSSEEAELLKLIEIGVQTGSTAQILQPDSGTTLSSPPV
Outline: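 Serum-starved (24 h) HUVECs were pre-treated with compound (8-point dose curve, 0.3% DMSO final) for 1 h, then stimulated with 100 ng/mL human VEGF165 for 5 min. Lysate phospho-KDR was quantified by ELISA against a phospho-KDR standard. IC50 came from a 4-parameter logistic fit, normalized to stimulated-DMSO (100%) and unstimulated (0%) controls.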

AXL, sequence (P30530 26-894): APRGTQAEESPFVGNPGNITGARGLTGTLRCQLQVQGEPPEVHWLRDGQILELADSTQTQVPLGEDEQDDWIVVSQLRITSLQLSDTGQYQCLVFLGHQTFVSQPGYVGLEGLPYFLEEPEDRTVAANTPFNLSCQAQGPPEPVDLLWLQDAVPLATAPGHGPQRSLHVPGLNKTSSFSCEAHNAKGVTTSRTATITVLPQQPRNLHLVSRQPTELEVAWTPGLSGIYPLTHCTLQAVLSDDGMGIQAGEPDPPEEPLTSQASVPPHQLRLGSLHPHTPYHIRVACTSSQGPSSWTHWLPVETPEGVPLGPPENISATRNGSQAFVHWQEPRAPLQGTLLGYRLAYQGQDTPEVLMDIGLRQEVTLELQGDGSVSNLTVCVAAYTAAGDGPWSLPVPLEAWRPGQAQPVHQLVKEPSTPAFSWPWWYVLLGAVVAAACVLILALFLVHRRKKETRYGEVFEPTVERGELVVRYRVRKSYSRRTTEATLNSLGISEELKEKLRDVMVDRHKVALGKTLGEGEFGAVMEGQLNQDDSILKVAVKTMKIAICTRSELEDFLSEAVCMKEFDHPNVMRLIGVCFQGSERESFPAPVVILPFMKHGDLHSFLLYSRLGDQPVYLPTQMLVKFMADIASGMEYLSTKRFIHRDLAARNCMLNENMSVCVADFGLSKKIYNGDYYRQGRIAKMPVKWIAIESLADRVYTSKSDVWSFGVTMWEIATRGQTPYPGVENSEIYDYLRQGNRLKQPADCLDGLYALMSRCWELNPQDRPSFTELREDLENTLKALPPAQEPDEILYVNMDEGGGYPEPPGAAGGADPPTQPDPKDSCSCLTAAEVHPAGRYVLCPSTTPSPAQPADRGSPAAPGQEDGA

| Structure (SMILES) | IC50 (AXL) [nM] | IC50 (Mer) [nM] | IC50 (Met) [nM] | IC50 (KDR) [nM] |
| --- | --- | --- | --- | --- |
| COCCOc1cc2ncnc(Oc3ccc(NC(=O)C4(C(=O)Nc5ccc(F)cc5)CC4)cc3Cl)c2nc1OC [Compound 80, 1-N′-[3-chloro-4-[6-methoxy-7-(2-methoxyethoxy)pyrido[3,2-d]pyrimidin-4-yl]oxy-phenyl]-1-N-(4-fluorophenyl)cyclo-propane-1,1-dicarboxamide] | 10 to 100 | ≤ 10 | 10 to 100 | ≤ 10 |
| COc1nc2c(Oc3ccc(NC(=O)C4(C(=O)Nc5ccc(F)cc5)CC4)cc3C#N)ncnc2cc1OCCCN1CCOCC1 [Compound 75, 1-N′-[3-cyano-4-[6-methoxy-7-(3-morpholin-4-ylpropoxy)pyrido[3,2-d]pyrimidin-4-yl]oxyphenyl]-1-N-(4-fluorophenyl)cyclo-propane-1,1-dicarboxamide] | 10 to 100 | 10 to 100 | 10 to 100 | 10 to 100 |
| COc1cnc2c(Oc3cc(F)c(NC(=O)C4(C(=O)Nc5ccc(F)cc5)CC4)cc3F)ncnc2c1 [Compound 19, 1-N′-[2,5-difluoro-4-(7-methoxypyrido[3,2-d]pyrimidin-4-yl)oxyphenyl]-1-N-(4-fluorophenyl)cyclo-propane-1,1-dicarboxamide] | 10 to 100 | 10 to 100 | 10 to 100 | 100 to 300 |
| COc1nc2c(Oc3ccc(NC(=O)C4(C(=O)Nc5ccc(F)cc5)CC4)c(Cl)c3)ncnc2cc1OCCCN1CCOCC1 [Compound 70, 1-N′-[2-chloro-4-[6-methoxy-7-(3-morpholin-4-ylpropoxy)pyrido[3,2-d]pyrimidin-4-yl]oxyphenyl]-1-N-(4-fluorophenyl)cyclo-propane-1,1-dicarboxamide] | 10 to 100 | 10 to 100 | 100 to 300 | 100 to 300 |
| COc1nc2c(Oc3ccc(NC(=O)C4(C(=O)Nc5ccc(F)cc5)CC4)c(C)c3)ncnc2cc1OCCCN1CCOCC1 [Compound 71, 1-N-(4-fluorophenyl)-1-N′-[4-[6-methoxy-7-(3-morpholin-4-ylpropoxy)pyrido[3,2-d]pyrimidin-4-yl]oxy-2-methylphenyl]cyclopropane-1,1-dicarboxamide] | 10 to 100 | > 300 | 100 to 300 | 10 to 100 |
| COc1cc2ncnc(Oc3ccc(NC(=O)C4(C(=O)Nc5ccc(F)cc5)CC4)c(F)c3F)c2nc1OC [Compound 34, 1-N′-[4-(6,7-dimethoxypyrido[3,2-d]pyrimidin-4-yl)oxy-2,3-difluorophenyl]-1-N-(4-fluorophenyl)cyclo-propane-1,1-dicarbox-amide] | ≤ 10 | ≤ 10 | 10 to 100 | 10 to 100 |
| COc1nc2c(Oc3c(F)cc(NC(=O)C4(C(=O)Nc5ccc(F)cc5)CC4)cc3F)ncnc2cc1OCCCN1CCOCC1 [Compound 76, 1-N′-[3,5-difluoro-4-[6-methoxy-7-(3-morpholin-4-ylpropoxy)pyrido[3,2-d]pyrimidin-4-yl]oxyphenyl]-1-N-(4-fluorophenyl)cyclo-propane-1,1-dicarboxamide] | ≤ 10 | ≤ 10 | 10 to 100 | 10 to 100 |

Results, then the compound that gave them:

| IC50 (AXL) [nM] | IC50 (Mer) [nM] | IC50 (Met) [nM] | IC50 (KDR) [nM] | Structure (SMILES) |
| --- | --- | --- | --- | --- |
| ≤ 10 | 10 to 100 | 10 to 100 | 10 to 100 | COc1cc2ncnc(Oc3ccc(NC(=O)C4(C(=O)Nc5ccc(F)cc5)CC4)c(F)c3)c2nc1OC [Compound 31, 1-N′-[4-(6,7-dimethoxy-pyrido[3,2-d]pyrimidin-4-yl)oxy-2-fluorophenyl]-1-N-(4-fluorophenyl)cyclo-propane-1,1-dicarboxamide] |
| ≤ 10 | ≤ 10 | 10 to 100 | ≤ 10 | COCCOc1cc2ncnc(Oc3cc(F)c(NC(=O)C4(C(=O)Nc5ccc(F)cc5)CC4)cc3F)c2nc1OC [Compound 83, 1-N′-[2,5-difluoro-4-[6-methoxy-7-(2-methoxy-ethoxy)pyrido[3,2-d]pyrimidin-4-yl]oxyphenyl]-1-N-(4-fluorophenyl)cyclopropane-1,1-dicarboxamide] |
| ≤ 10 | ≤ 10 | ≤ 10 | ≤ 10 | COCCOc1cc2nccc(Oc3ccc(NC(=O)C4(C(=O)Nc5ccc(F)cc5)CC4)cc3F)c2nc1OC [Compound 150, 1-N′-[3-fluoro-4-[[6-methoxy-7-(2-methoxyethoxy)-1,5-naphthyridin-4-yl]oxy]phenyl]-1-N-(4-fluoro-phenyl)cyclopropane-1,1-dicarboxamide] |
| ≤ 10 | ≤ 10 | 10 to 100 | 10 to 100 | COc1nc2c(Oc3ccc(NC(=O)C4(C(=O)Nc5ccc(F)cc5)CC4)c(F)c3)ncnc2cc1OCCCN1CCOCC1 [Compound 69, 1-N′-[2-fluoro-4-[6-methoxy-7-(3-morpholin-4-ylpropoxy)pyrido[3,2-d]pyrimidin-4-yl]oxyphenyl]-1-N-(4-fluorophenyl)cyclo-propane-1,1-dicarboxamide] |
